What was measured:
[1] = system: rats (baseline acoustic startle); settings: rat, in vivo, ip
Description: A total of 72 male Sprague-Dawley rats (Charles River, Portage, Mich.) weighing 350-450 g were used. Animals were maintained on a 12:12 hour light-dark cycle (lights on at 0700) with food and water continuously available. All rats were housed in group cages of four rats each in a temperature-controlled (24° C.) animal colony.
Animals were trained and tested in 8×15×15 cm Plexiglas® and wire-mesh cages. Each cage floor consisted of four 6.0 mm diameter stainless-steel bars spaced 18 mm apart. Each cage was suspended between compression springs within a steel frame and located within a custom-designed 90×70×70 cm ventilated sound-attenuating chamber. Background noise (60 dB wide-band) was provided by a General Radio Type 1390-B noise generator (Concord, Mass.) and delivered through high-frequency speakers (Radio Shack Supertweeter; Tandy, Fort Worth, Tex.) located 5 cm in front of each cage. Sound level measurements (sound pressure level) were made with a Bruel & Kjaer (Marlborough, Mass.) model 2235 sound-level meter (A scale; random input) with the microphone (Type 4176) located 7 cm from the center of the speaker (approximating the distance of the rat's ear from the speaker). […]

[2] = system: Fos protein expression; experiment: Brain gene expression measured by Fos protein expression; type: in vivo, rat
[3] = system: rats (fear-potentiated startle); experiment: Fear-potentiated startle paradigm in rats; type: in vivo, rat
Description: The conditioned stimulus (CS) was a 3.7 second light (80 lux) produced by an 8 W fluorescent bulb (100 msecond rise time) located 10 cm behind each cage. Luminosity was measured using a VWR light meter (Atlanta, Ga.). The US was a 0.5 second shock, delivered to the floorbars and produced by a shock generator (SGS-004; LeHigh Valley, Beltsville, Md.). Shock intensities (measured as in Cassella et al., Physiol Behav 36:1187-91, 1986) were 0.4 mA. The presentation and sequencing of all stimuli were under the control of the Macintosh G3 computer using custom-designed software (The Experimenter; Glassbeads Inc., Newton, Conn.).
The experiment was run in four replications.
Fear conditioning. On each of the next 2 days, rats were returned to the test chambers and 5 minutes later given the first of 10 light-footshock pairings. The 0.4 mA 0.5 second shock was delivered during the last 0.5 second of the 3.7 second light. The average intertrial interval (ITI) was 4 minutes (range, 3-5 minutes).

[4] = system: rats (spatial learning and memory)
Description: The M swim maze was developed to test spatial learning and memory (e.g., functional memory). The animal has no visual or spatial cues in the pool and must rely on extra-maze cues (e.g., light setup outside the pool that can be seen by the swimming animal). Through a series of trials a rat develops “place learning” or knowledge about the position of the escape platform based upon the extra-maze cues. The platform can be moved to a different arm of the M configuration each day, combining spatial memory with working memory. This paradigm involves extinction of the prior memory and resolution of a new spatial problem.
Test Animals. A total of 40 male rats were used.
Behavioral Procedures and Data Analysis. Rats (10/group) were treated by tail vein injection with vehicle, 0.4 μg/kg/day, 4.0 μg/kg/day, and 40 μg/kg/day secretin on post natal day 25 through postnatal day 70 (45 days). Learning and memory was evaluated in a water M-maze. The evaluation consisted of 10 trials/day for each animal on 4 successive days to assess short-term memory. The goal was to escape from the maze via a platform located on the lighted arm of an M-shaped maze. After placement of the animal in the central arm of the M-shaped maze, the goal side was varied for each animal at each trial according to a predetermined computer generated sequence. The same animals were also tested 5 days after the initial testing to assess long-term memory. On that day each animal were allowed 10 trials in the maze and time to escape was measured. Significance was calculated versus the control group value for the same day of testing using a T-test.

## secretin
[1]
  effect of higher doses on baseline startle: tended to suppress baseline startle
[2]; i.p. or i.v.
  dose giving peak change in Fos protein expression: 40 µg/kg
[2]; i.v. or i.p.
  minimum dose to detect significant changes in brain gene expression (Fos protein): 4 µg/kg
[3]; i.p.
  minimum dose possessing anxiolytic properties in fear-potentiated startle paradigm: 3 µg/kg
[3]; i.p. 1-100 μg/kg immediately prior to testing
  effect on expression of fear-potentiated startle: dose dependently impaired expression of fear-potentiated startle
[3]; i.p. immediately prior to testing
  dose giving greatest impairment of fear-potentiated startle: 10 µg/kg
[4]; rat, in vivo, iv
  ability to learn and remember a spatial associative memory task: does not impair
[4]; rats, 0.4 or 4.0 μg/kg/day i.v., after 4 training days, maintained after 5 day rest
  learning performance in water M-maze relative to controls: improved in learning performance
[4]; rats, i.v.
  minimum dose that improves functional memory in M swim maze: 0.4 µg/kg

Source: patent US20050002922A1, “Use of secretin and secretin analogs to treat affective disorders” (priority 2003, published 2005)
